Laboratory results: patent US20240255506A1, “PAIRED-CELL PROFILING SYSTEMS FOR HIGH-THROUGHPUT SCREENING SYNCYTIUM FORMATION” (priority 2023, published 2024)

What was measured:
[1] = test system: SARS-COV-2 spike-induced syncytium formation in A549-ACE2 cells; format: cell-based; conditions: A549-ACE2-GFP1-10 receiver cells, HEK293T-GFP-11 sender cells expressing WT D614G spike; drugs added 3 h after seeding, imaged after 24 h; vs DMSO-treated control
[2] = test system: SARS-COV-2 spike-induced syncytium formation in Vero E6 cells; format: cell-based; conditions: Vero E6-GFP1-10 receiver cells, HEK293T-GFP-11 sender cells expressing WT D614G spike; drugs added 3 h after seeding, imaged after 24 h; vs DMSO-treated control
[3] = test system: SARS-COV-2 D614G live virus; format: cell-based; conditions: Vero E6 and Vero E6-TMPRSS2 GFP1-10/GFP11 cells; CPZ 16 μM, promethazine 12.5 μM, fluvoxamine 12.5 μM, 24 h
SARS-COV-2 D614G virus = format: cell-based; conditions: both cell lysate and supernatant samples after virus infection; Vero E6, Vero E6-TMPRSS2 and A549-ACE2 cells
SARS-COV-2 D614G = conditions: hamster, in vivo; for infectious SARS-COV-2 titer in lung tissues (plaque assay) / virus RdRp gene expression level in lung tissues: ip

Compound | syncytium formation [1] | syncytium formation [2] | syncytium formation in SARS-COV-2 D614G-infected cells [3] | expression levels of SARS-COV-2 RNA-dependent RNA polymerase (RdRp) (SARS-COV-2 D614G virus) | area of positivity of the SARS-COV-2 nucleocapsid protein in lung tissues (SARS-COV-2 D614G) | body weight of the hamsters (SARS-COV-2 D614G) | syncytium-like multinucleated cells within SARS-COV-2 nucleocapsid-positively stained lung tissues (SARS-COV-2 D614G) | infectious SARS-COV-2 titer in lung tissues (plaque assay) (SARS-COV-2 D614G) | virus RdRp gene expression level in lung tissues (SARS-COV-2 D614G)
CN(C)CCCN1c2ccccc2Sc2ccc(Cl)cc21 [chlorpromazine] | greatly impeded syncytium formation | greatly impeded syncytium formation | inhibited syncytium formation | greatly reduced | reduced | no significant change | less syncytium-like multinucleated cells were detected | reduced | reduced
COCCCC/C(=N\OCCN)c1ccc(C(F)(F)F)cc1 [fluvoxamine] | greatly impeded syncytium formation | greatly impeded syncytium formation | inhibited syncytium formation | greatly reduced | reduced | no significant change | less syncytium-like multinucleated cells were detected | reduced | reduced
CC(CN1c2ccccc2Sc2ccccc21)N(C)C (stereo not shown) [promethazine] | greatly impeded syncytium formation | greatly impeded syncytium formation | inhibited syncytium formation | greatly reduced | – | – | – | – | –
